In experiment [1] the test system is Q7 cells (ST HDH Q7/7; immortalized mouse striatal cells). Description: Q7 cystine deprivation cell survival assay (96-well, Calcein AM). Type of experiment: cell-based. Conditions: for EC50: Mus musculus, rescue of Q7 cells from cystine deprivation, 18 hours, Calcein AM fluorescence, 96-well. The method, then:
(§1) In neuronal cells excess extracellular glutamate inhibits the cystine/glutamate antiporter leading to intracellular cysteine depletion, GSH depletion, ROS production and cell death, a phenomenon termed oxidative glutamate toxicity or oxytosis. Q7 cells (ST HDH Q7/7; immortalized mouse striatal cells) challenged with cystine-free media recapitulate this phenotype. An initial screen was performed to identify compounds effective in rescuing Q7 cells from death resulting from cystine deprivation. This method is further described in Yonezawa et al., J. Neurochem 67, 566-573 (1996), and Li et al., J Neurosci., 23, 5816-5826 (2003).
(§2) DMEM (Catalog no. 11995-040), DMEM without Cystine (Catalog no. 21013-024), Penicillin-streptomycin mix, L-Glutamine and Pyruvate were purchased from Gibco. Fetal Bovine Serum was obtained from Mediatech, Inc. Mouse striatum derived ST HDH Q7/7 (Q7) cells were obtained from Dr. M. MacDonald (Massachusetts General Hospital). Methionine and Vitamin K2 were purchased from Sigma Aldrich. Calcein AM was purchased from Anaspec. Geneticin (G418) Sulfate was purchased from Santa Cruz Biotechnology. Cell culture medium (Growth medium) was made by combining 50 mL Fetal Bovine Serum, 100 U/mL penicillin, 100 microgram/mL streptomycin and 400 microgram/mL Geneticin (G418) Sulfate; DMEM was added to make the volume up to 500 mL. Assay medium (without Cystine) was made by combining 50 mL Fetal Bovine Serum, 100 U/mL penicillin, 100 microgram/mL streptomycin, 4 mM L-Glutamine, 1 mM Pyruvate and 30 mg/L Methionine; DMEM without Cystine was added to make the volume up to 500 mL. During the course of the experiments, these solutions were stored at 4° C. The cells were grown in 10-cm diameter tissue culture-treated dishes. Every fourth day, the cells were subcultured by trypsinization and re-seeding at a cell density of 500,000 cells per dish.
(§3) Test samples were supplied in 1.5 mL glass vials. The compounds were diluted with an appropriate volume of DMSO to result in a 1 mM stock solution. Once dissolved, they were stored at −20° C.
Test samples were screened according to the following protocol:
Q7 cells were cultured routinely as described herein. For cell survival assays, cells were seeded in clear 96-well tissue culture-treated polystyrene plates by resuspending a cell suspension at a density of 100,000 cells/mL in growth medium, then dispensing 100 microliters of cell suspension per well using an electronic multichannel pipette, corresponding to 10,000 cells/well. The cell-containing plates were incubated 5 hours at 33° C. in an atmosphere with 95% humidity and 5% CO2 to allow attachment of the cells to the culture plate.
Test compounds were thawed, and 2 microliters of a 1 mM stock solution was diluted in a microtiter plate well containing 98 microliters of 10% DMSO in H2O, resulting in a 20 micromolar master solution. Serial dilutions from the master solution were made in 10% DMSO. The period between the single dilution steps was kept as short as possible (generally less than 30 seconds). 5 hours after cell seeding into the 96-well assay plate, the cell culture medium was removed by inverting the plates and gently patted onto paper towel. The plates were washed once with 100 microliters of PBS containing Ca^++ and Mg^++. PBS containing Ca^++ and Mg^++ were removed by inverting the plates and gently patted onto a paper towel. After washing the wells, 100 microliters of assay medium without Cystine was dispensed and then treated with 10 microliters of the various compound dilutions in triplicates. Final concentration of DMSO in the well was 1%.
After medium change to cystine-free medium and compound addition, cell plates were incubated at 33° C. in an atmosphere of 5% CO2 and 95% humidity. 18 hours later, the medium from all plates was removed by inverting the plates and gently tapping the plate onto a paper towel. […]

For experiment [2] the test system is unchanged. Description: 384-Well Cell Titer Glo (CTG) Q7 Cystine Deprivation Survival Assay. Type of experiment: cell-based. Particulars: read-out: Q7 Cystine Free CTG 384 CSA (EC50). Here is the method:
as §1
as §2, with “21013-024), PBS (Phosphate buffered saline),” for “21013-024),”, “Cell Titer Glo 2.0” for “Calcein AM”, “Promega.” for “Anaspec.”
as §3
Test Samples were Screened According to the Following Protocol:
Q7 cells were cultured routinely as described herein. For 384-well cell survival assays, cells were seeded in clear bottom, black wall 384-well tissue culture-treated polystyrene plates by resuspending a cell suspension at a density of 50,000 cells/mL in growth medium, then dispensing 60 microliters of cell suspension per well using either an electronic multichannel pipette or a Multidrop™ Combi Reagent Dispenser (ThermoFisher Scientific), corresponding to 3,000 cells/well. The cell-containing plates were incubated 5 hours at 33° C. in an atmosphere with 95% humidity and 5% CO2 to allow attachment of the cells to the culture plate.
5 hours after cell seeding into the 384-well assay plate, the cell culture medium was replaced by washing 2 times with 70 microliters/well PBS (without Ca^++ and Mg^++) using a BioTek ELx405 plate washer. After the final aspiration, 60 microliters/well of assay medium (without cystine) was added using the Multidrop Combi Reagent Dispenser. Within 45 minutes, test compounds were then added to varying final concentrations using the Tecan D300e Digital Dispenser, with subsequent back-filling with DMSO diluent to a final concentration of 0.3% (v/v).
After medium change to cystine-free medium and compound addition, cell plates were incubated at 33° C. in an atmosphere of 5% CO2 and 95% humidity. 18 hours later, the plates were equilibrated to room temperature for 15 minutes. Then, 10 microliters/well of room temperature Cell Titer Glo 2.0 reagent was added using the Multidrop Combi Reagent Dispenser. After 15 minutes of incubation at room temperature, the luminescence (100 ms integration time) per well was determined using the BioTek Synergy plate reader. Data was imported into Microsoft Excel. […]

Where [3] appears, read: rescue of Q7 cells from cystine deprivation, 18 hours, Cell Titer Glo luminescence, 384-well.

Data on 23 molecules can be found in patent US10703701B2, “Fluoroalkyl, fluoroalkoxy, phenoxy, heteroaryloxy, alkoxy, and amine 1,4-benzoquinone derivatives for treatment of oxidative stress disorders” (PTC Therapeutics, Inc., priority 2015, dated 2020).

For `CC1=C(C)C(=O)C(CCCCCCCCOCC(F)(F)F)=C(C)C1=O` [Example 1, 2,3,5-trimethyl-6-(8-(2,2,2-trifluoroethoxy)octyl)cyclohexa-2,5-diene-1,4-dione], the EC50 was 0.5 to 1 µM in experiment [1] and 0.1 to 0.5 µM in experiment [2] (setting [3]). Take `CC1=C(C)C(=O)C(CCCCCCCCC(F)(F)F)=C(C)C1=O` [Example 2, 2,3,5-trimethyl-6-(9,9,9-trifluorononyl)cyclohexa-2,5-diene-1,4-dione]: the concentration for a half-maximal effect (EC50) in experiment [1] was 0.5 to 1 µM; in experiment [2] (setting [3]) it was 0.1 to 0.5 µM.

Regarding `COCCCCCCCCC1=C(C)C(=O)C(C)=C(C)C1=O` [Example 3, 2-(8-methoxyoctyl)-3,5,6-trimethylcyclohexa-2,5-diene-1,4-dione], the figures for the EC50 in experiment [1] and in experiment [2] (setting [3]) were 0.5 to 1 µM and 0.1 to 0.5 µM, respectively. On to `CC1=C(C)C(=O)C(CCCCCCCCCCC(F)(F)F)=C(C)C1=O` [Example 4, 2,3,5-trimethyl-6-(11,11,11-trifluoroundecyl)cyclohexa-2,5-diene-1,4-dione], for which the results for the EC50 in experiment [1] and in experiment [2] (setting [3]) were under 0.5 µM and under 0.1 µM, respectively. The matching figures for `CC1=C(C)C(=O)C(CCCCCCCCCCOCC(F)(F)F)=C(C)C1=O` [Example 5, 2,3,5-trimethyl-6-(10-(2,2,2-trifluoroethoxy)decyl)cyclohexa-2,5-diene-1,4-dione]: under 0.5 µM and under 0.1 µM. Consider `COCCCCCCCCCCC1=C(C)C(=O)C(C)=C(C)C1=O` [Example 6, 2-(10-methoxydecyl)-3,5,6-trimethylcyclohexa-2,5-diene-1,4-dione], for which the EC50 in experiment [1] is 0.5 to 1 µM; in experiment [2] (setting [3]), under 0.1 µM. The matching figures for `CC1=C(C)C(=O)C(C(C)C)=C(CCCCCCCCCCC(F)(F)F)C1=O` [Example 7, 2-isopropyl-5,6-dimethyl-3-(11,11,11-trifluoroundecyl)cyclohexa-2,5-diene-1,4-dione]: under 0.5 µM and 0.1 to 0.5 µM. As to `CC1=C(C)C(=O)C(NS(C)(=O)=O)=C(CCCCCCCCCCC(F)(F)F)C1=O` [Example 8, N-(4,5-dimethyl-3,6-dioxo-2-(11,11,11-trifluoroundecyl)cyclohexa-1,4-dien-1-yl)methanesulfonamide], the EC50 in experiment [2] (setting [3]) is under 0.1 µM. As for `CC1=C(C)C(=O)C(CCCCCCCCCCOC(C)C)=C(C)C1=O` [Example 9, 2-(10-isopropoxydecyl)-3,5,6-trimethylcyclohexa-2,5-diene-1,4-dione], the EC50 in experiment [2] (18 h) was under 0.1 µM.

With `CCOCCCCCCCCC1=C(C)C(=O)C(C)=C(C)C1=O` [Example 10, 2-(8-ethoxyoctyl)-3,5,6-trimethylcyclohexa-2,5-diene-1,4-dione], the EC50 in experiment [2] (18 h) was under 0.1 µM.

Regarding `CC1=C(C)C(=O)C(CCCCCCCCCCOCC(C)C)=C(C)C1=O` [Example 11, 2-(10-isobutoxydecyl)-3,5,6-trimethylcyclohexa-2,5-diene-1,4-dione], the half-maximal effective concentration (EC50) in experiment [2] (18 h) was under 0.1 µM. The same measure, in the same setting: in the case of `CCCOCCCCCCCCCCC1=C(C)C(=O)C(C)=C(C)C1=O` [Example 12, 2,3,5-trimethyl-6-(10-propoxydecyl)cyclohexa-2,5-diene-1,4-dione] it was under 0.1 µM; in that of `CC1=C(C)C(=O)C(CCCCCCCCCCOc2ccccc2)=C(C)C1=O` [Example 13, 2,3,5-trimethyl-6-(10-phenoxydecyl)cyclohexa-2,5-diene-1,4-dione], under 0.1 µM.

As for `CC1=C(C)C(=O)C(CCCCCCCCOC(C)C)=C(C)C1=O` [Example 14, 2-(8-isopropoxyoctyl)-3,5,6-trimethylcyclohexa-2,5-diene-1,4-dione], the EC50 in experiment [2] (18 h) was under 0.1 µM. Take `COCCCCCCC1=C(C)C(=O)C(C)=C(C)C1=O` [Example 15, 2-(6-methoxyhexyl)-3,5,6-trimethylcyclohexa-2,5-diene-1,4-dione]: the EC50 in experiment [2] (18 h) is 0.1 to 0.5 µM. With `CCOCCCCCCCCCCC1=C(C)C(=O)C(C)=C(C)C1=O` [Example 16, 2-(10-ethoxydecyl)-3,5,6-trimethylcyclohexa-2,5-diene-1,4-dione], the EC50 in experiment [2] (setting [3]) was under 0.1 µM. Consider `CCCOCCCCCCCCC1=C(C)C(=O)C(C)=C(C)C1=O` [Example 17, 2,3,5-trimethyl-6-(8-propoxyoctyl)cyclohexa-2,5-diene-1,4-dione], for which the EC50 in experiment [2] (setting [3]) is under 0.1 µM. As to `CC1=C(C)C(=O)C(CCCCCCCCOCC(C)C)=C(C)C1=O` [Example 18, 2-(8-isobutoxyoctyl)-3,5,6-trimethylcyclohexa-2,5-diene-1,4-dione], in experiment [2] (18 h), the EC50 is under 0.1 µM.

In the case of `CC1=C(C)C(=O)C(CCCCCCCCOc2cccnc2C)=C(C)C1=O` [Example 19, 2,3,5-trimethyl-6-(8-((2-methylpyridin-3-yl)oxy)octyl)cyclohexa-2,5-diene-1,4-dione], the EC50 in experiment [2] (18 h) lay within 0.1 to 0.5 µM. As for `CC1=C(C)C(=O)C(CCCCCCCCCCN(C)CC(C)C)=C(C)C1=O` [Example 20, 2-(10-(isobutyl(methyl)amino)decyl)-3,5,6-trimethylcyclohexa-2,5-diene-1,4-dione], the EC50 in experiment [2] (setting [3]) was under 0.1 µM.

Consider `CC1=C(C)C(=O)C(CCCCCCCCCCN2CCCC2)=C(C)C1=O` [Example 21, 2,3,5-trimethyl-6-(10-(pyrrolidin-1-yl)decyl)cyclohexa-2,5-diene-1,4-dione], for which, in experiment [2] (setting [3]), the concentration for a half-maximal effect (EC50) is under 0.1 µM. In the case of `CC1=C(C)C(=O)C(CCCCCCCCCCNCC(C)C)=C(C)C1=O` [Example 22, 2-(10-(isobutylamino)decyl)-3,5,6-trimethylcyclohexa-2,5-diene-1,4-dione], the EC50 in experiment [2] (18 h) is under 0.1 µM. Turning to `CC(C)=CCC/C(C)=C/CC/C(C)=C/CC/C(C)=C/CC1=C(C)C(=O)c2ccccc2C1=O` [Vitamin K2, reference compound], the “rescue of cystine deprivation-induced reduction in cell viability” value in experiment [1] (1 micromolar, defined as 100% relative viability) is listed as “completely rescued”.
